As usually defined, the EC50 is the concentration at which the effect is half-maximal. Read a low EC50 as higher potency in that assay.

The first assay addresses human PDE1b enzyme (Homo sapiens (Human), UniProt Q01064). Briefly: PDE1b inhibitory assay (IMAP TR-FRET).
Conditions: not given
In general terms: TR-FRET usually uses a lanthanide donor and a delayed reading to cut background.
For `COc1ccc(Cn2c(=O)n3ncnc3c3c4c(sc32)CN(C(C)C(F)F)CC4)cc1` (centres unmarked) [Example 151, 9-(1,1-Difluoropropan-2-yl)-6-(4-methoxybenzyl)-8,9,10,11-tetrahydropyrido[4′,3′:4,5]thieno[3,2-e][1,2,4]triazolo[1,5-c]pyrimidin-5(6H)-one], the EC50 fell in the range of 100 to 1000 nM.

`COc1ccc(Cn2c(=O)n3ncnc3c3c4c(sc32)N(Cc2ccc(Cl)cc2)CCC4)cc1` [Example 152, 8-(4-Chlorobenzyl)-6-(4-methoxybenzyl)-8,9,10,11-tetrahydropyrido[3′,2′:4,5]thieno[3,2-e][1,2,4]triazolo[1,5-c]pyrimidin-5 (6H)-one] yielded an EC50 of 100 to 1000 nM. Still for that read-out and setting: then `COc1ccc(Cn2c(=O)n3ncnc3c3c4c(sc32)N(Cc2ccc(Cl)cc2)CCC4)cc1OC` [Example 153, 8-(4-Chlorobenzyl)-6-(3,4-dimethoxybenzyl)-8,9,10,11-tetrahydropyrido[3′,2′:4,5]thieno[3,2-e][1,2,4]triazolo[1,5-c]pyrimidin-5 (6H)-one], with 1000 to 10000 nM; and `COc1ccc(Cn2c(=O)n3ncnc3c3c4c(sc32)N(Cc2cccc(Cl)c2)CCC4)cc1OC` [Example 155, 8-(3-Chlorobenzyl)-6-(3,4-dimethoxybenzyl)-8,9,10,11-tetrahydropyrido[3′,2′:4,5]thieno[3,2-e][1,2,4]triazolo[1,5-c]pyrimidin-5(6H)-one], with 1000 to 10000 nM; and `COc1ccc(Cn2c(=O)n3ncnc3c3c4c(sc32)CN(C(=O)C2CCN(C)C2)CC4)cc1` (centres unmarked) [Example 163, 6-(4-Methoxybenzyl)-9-(1-methylpyrrolidine-3-carbonyl)-8,9,10,11-tetrahydropyrido[4′,3′:4,5]thieno[3,2-e][1,2,4]triazolo[1,5-c]pyrimidin-5(6H)-one], with 100 to 1000 nM.

Staying with this assay, now noted: negative log of half-maximal molar inhibitory concentration; 200 nM FAM-cAMP; reported as ranges.
Turning to `COc1ccc(Cn2c(=O)n3ncnc3c3c4c(sc32)CN(Cc2ccccn2)CC4)c(F)c1` [Example 139, 6-(2-Fluoro-4-methoxybenzyl)-9-(pyridin-2-ylmethyl)-8,9,10,11-tetrahydropyrido[4′,3′:4,5]thieno[3,2-e][1,2,4]triazolo[1,5-c]pyrimidin-5 (6H)-one], the “PDE1b (pEC50)” value is >7. The same measure, in the same setting: then `COc1ccc(Cn2c(=O)n3ncnc3c3c4c(sc32)CN(CC2CCOC2)CC4)c(F)c1` (centres unmarked) [Example 140, 6-(2-Fluoro-4-methoxybenzyl)-9-((tetrahydrofuran-3-yl)methyl)-8,9,10,11-tetrahydropyrido[4′,3′:4,5]thieno[3,2-e][1,2,4]triazolo[1,5-c]pyrimidin-5(6H)-one], with >7; and `COc1ccc(Cn2c(=O)n3ncnc3c3c4c(sc32)CN(CC2CCCOC2)CC4)c(F)c1` (centres unmarked) [Example 142, 6-(2-Fluoro-4-methoxybenzyl)-9-((tetrahydro-2H-pyran-3-yl)methyl)-8,9,10,11-tetrahydropyrido[4′,3′:4,5]thieno[3,2-e][1,2,4]triazolo[1,5-c]pyrimidin-5(6H)-one], with >7. Turning to `COc1ccc(Cn2c(=O)n3ncnc3c3c4c(sc32)CN(CC2CCOC2)CCC4)cc1` (centres unmarked) [Example 143, 6-(4-Methoxybenzyl)-9-((tetrahydrofuran-3-yl)methyl)-6,8,9,10,11,12-hexahydro-5H-[1,2,4]triazolo[1″,5″:1%6′]pyrimido[5′,4′:4,5]thieno[2,3-c]azepin-5-one], the “PDE1b (pEC50)” value is >7. Still for that read-out and setting: then `COc1ccc(Cn2c(=O)n3ncnc3c3c4c(sc32)CN(Cc2nccn2C)CCC4)cc1` [Example 144, 6-(4-Methoxybenzyl)-9-((1-methyl-1H-imidazol-2-yl)methyl)-6,8,9,10,11,12-hexahydro-5H-[1,2,4]triazolo[1″,5″:1′,6′]pyrimido[5′,4′:4,5]thieno[2,3-c]azepin-5-one], with >7.

On to `COc1ccc(Cn2c(=O)n3ncnc3c3c4c(sc32)CN(Cc2ncccn2)CCC4)cc1` [Example 145, 6-(4-Methoxybenzyl)-9-(pyrimidin-2-ylmethyl)-6,8,9,10,11,12-hexahydro-5H-[1,2,4]triazolo[1″,5″:1′,6]pyrimido[5′,4′:4,5]thieno[2,3-c]azepin-5-one], for which the “PDE1b (pEC50)” value was >7. As to `COc1ccc(Cn2c(=O)n3ncnc3c3c4c(sc32)CN(Cc2ccccn2)CCC4)cc1` [Example 146, 6-(4-Methoxybenzyl)-9-(pyridin-2-ylmethyl)-6,8,9,10,11,12-hexahydro-5H-[1,2,4]triazolo[1″,5″:1′,6′]pyrimido[5′,4′:4,5]thieno[2,3-c]azepin-5-one], the “PDE1b (pEC50)” value was >7. Still for that read-out and setting: next, `COc1ccc(Cn2c(=O)n3ncnc3c3c4c(sc32)CN(CC2CCOCC2)CCC4)cc1` [Example 147, 6-(4-Methoxybenzyl)-9-((tetrahydro-2H-pyran-4-yl)methyl)-6,8,9,10,11,12-hexahydro-5H-[1,2,4]triazolo[1″,5″:1′,6′]pyrimido[5′,4′:4,5]thieno[2,3-c]azepin-5-one]: >7.

`COc1ccc(Cn2c(=O)n3ncnc3c3c4c(sc32)N(CC2CCOCC2)CCC4)cc1` [Example 148, 6-(4-Methoxybenzyl)-8-((tetrahydro-2H-pyran-4-yl)methyl)-8,9,10,11-tetrahydropyrido[3′,2′:4,5]thieno[3,2-e][1,2,4]triazolo[1,5-c]pyrimidin-5(6H)-one]: the “PDE1b (pEC50)” value was >7. The same measure, in the same setting: then `COc1ccc(Cn2c(=O)n3ncnc3c3c4c(sc32)N(CC2CCCOC2)CCC4)cc1` (centres unmarked) [Example 149, 6-(4-Methoxybenzyl)-8-((tetrahydro-2H-pyran-3-yl)methyl)-8,9,10,11-tetrahydropyrido[3′,2′:4,5]thieno[3,2-e][1,2,4]triazolo[1,5-c]pyrimidin-5(6H)-one], with >7. Same read-out and setting: then `COc1ccc(Cn2c(=O)n3ncnc3c3c4c(sc32)N(CC2CCOC2)CCC4)cc1` (centres unmarked) [Example 150, 6-(4-Methoxybenzyl)-8-((tetrahydrofuran-3-yl)methyl)-8,9,10,11-tetrahydropyrido[3′,2′:4,5]thieno[3,2-e][1,2,4]triazolo[1,5-c]pyrimidin-5(6H)-one], with >7; and `COc1ccc(Cn2c(=O)n3ncnc3c3c4c(sc32)CN(CC2CCOCC2)CC4(F)F)c(F)c1` [Example 156, 11,11-Difluoro-6-(2-fluoro-4-methoxybenzyl)-9-((tetrahydro-2H-pyran-4-yl)methyl)-8,9,10,11-tetrahydropyrido[4′,3′:4,5]thieno[3,2-e][1,2,4]triazolo[1,5-c]pyrimidin-5(6H)-one], with >7.

For the molecule `O=C(c1cnccn1)N1CCc2c(sc3c2c2ncnn2c(=O)n3Cc2ccc(Cl)cc2)C1` [Example 157, 6-(4-Chlorobenzyl)-9-(pyrazine-2-carbonyl)-8,9,10,11-tetrahydropyrido[4′,3′:4,5]thieno[3,2-e][1,2,4]triazolo[1,5-c]pyrimidin-5(6H)-one], the “PDE1b (pEC50)” value was >7. On the same count and under the same terms, then `COc1ccc(Cn2c(=O)n3ncnc3c3c4c(sc32)CN(C(=O)C2CC2)CC4)cc1` [Example 159, 9-(Cyclopropanecarbonyl)-6-(4-methoxybenzyl)-8,9,10,11-tetrahydropyrido[4′,3′:4,5]thieno[3,2-e][1,2,4]triazolo[1,5-c]pyrimidin-5(6H)-one], with >7. For the molecule `COc1ccc(Cn2c(=O)n3ncnc3c3c4c(sc32)CN(S(C)(=O)=O)CC4)cc1` [Example 162, 6-(4-Methoxybenzyl)-9-(methylsulfonyl)-8,9,10,11-tetrahydropyrido[4′,3′:4,5]thieno[3,2-e][1,2,4]triazolo[1,5-c]pyrimidin-5(6H)-one], the “PDE1b (pEC50)” value is reported as >7.

For the origin of these results see patent publication US10092575B2, “Substituted thiophene- and furan-fused azolopyrimidine-5-(6H)-one compounds” (DART NEUROSCIENCE (CAYMAN) LTD., priority 2012, dated 2018).
